This note sets out measurements from patent publication US7423044B2, “Pyrimidine derivatives useful in the treatment of insulin resistance and hyperglycemia” (Wyeth, priority 2002, dated 2008).

pKi: −log10 of the molar value.

One experiment concerns the target T1, PTP-1B (Homo sapiens, UniProt P18031).
T1 sequence (P18031 1-435): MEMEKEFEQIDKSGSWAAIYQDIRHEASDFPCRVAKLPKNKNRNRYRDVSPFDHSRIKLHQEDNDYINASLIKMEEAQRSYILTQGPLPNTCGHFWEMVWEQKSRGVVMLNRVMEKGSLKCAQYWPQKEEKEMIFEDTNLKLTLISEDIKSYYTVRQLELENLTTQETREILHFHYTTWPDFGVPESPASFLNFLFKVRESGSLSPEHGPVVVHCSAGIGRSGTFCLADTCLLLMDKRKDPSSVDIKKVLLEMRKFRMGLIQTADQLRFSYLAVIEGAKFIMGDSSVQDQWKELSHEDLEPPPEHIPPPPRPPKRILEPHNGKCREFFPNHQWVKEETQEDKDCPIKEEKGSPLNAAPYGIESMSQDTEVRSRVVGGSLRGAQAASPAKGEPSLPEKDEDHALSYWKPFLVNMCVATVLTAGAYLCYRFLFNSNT
Description: PTPase inhibition assay (DIFMUP fluorescence kinetic assay). The class given is biochemical. The conditions noted are these: apparent final potency from steady-state velocity (Vs); 20 μM DIFMUP, 1 nM enzyme; read-out: Kiapp. Here is the method:
Measurement of PTPase activity: The present compounds are assayed in an enzyme activity-based assay. PTP-1B is known to dephosphorylate phospho-peptides. This assay is a fluorescence intensity based kinetic assay, taking advantage of a non-peptidyl substrate, 6,8-difluoro-4-methylumbelliferyl phosphate (DIFMUP). When excited at 358 nm, the dephosphorylated product of DIFMUP emits at 450 nm.
The compounds of Examples 1-22 were analyzed as follows. The assay was conducted in black 384-well non-treated plates (Costar#3710). The assay buffer contained 50 mM 3,3-dimethyl glutaric acid, pH 7.0, 48 mM NaCl, 1 mM EDTA. Inhibitors were prepared as DMSO solution and diluted to desired concentrations using 50 mM HEPES, pH 7.4. PTP-1B was diluted to a 2.5 nM working stock using the assay buffer containing additional 0.001% (w/v) hydrogenated Triton X-100. DIFMUP was diluted to 40 μM using the assay buffer. 5 μl of inhibitor was first dispensed into assay plate. In cases of control reactions, […] of the assay buffer was dispensed. This was followed by 25 μl of DIFMUP working stock. The reaction was then initiated by the addition of 20 μl of PTP-1B working stock. The final DIFMUP concentration was 20 μM (˜1.6×Km). The final enzyme concentration was 1 nM and the detergent concentration was 0.0004% (w/v). Typical inhibitor concentrations were from 0.08 to 40 μM. The reaction progress was monitored continuously for 30 min.
Calculations: For data analysis, the last five data points were used to obtain a slope corresponding to the estimated steady-state velocity (Vs), and the overall progress curves were used to obtain the average velocity (Va), by linear regression in both cases. The apparent final potency of inhibitor (Kiapp) was then calculated from Vs data, using the standard hyperbolic inhibition equation. The IC50 values were calculated from Va data using the sigmoidal inhibition equation. % Inhibition values were calculated from Va values of inhibitor at 40 μM, and the average Va value of control reactions.
For `O=C(O)c1ccc(COc2cc(-c3ccccc3)nc(-c3ccc(Cl)cc3)n2)cc1` [Example 1, 4-({[2-(4-Chlorophenyl)-6-phenylpyrimidin-4-yl]oxy}methyl)benzoic acid], the pKi was 5.78. In the case of `O=C(O)c1ccc(COc2cc(-c3ccccc3)nc(-c3ccncc3)n2)cc1` [Example 6, 4-{[(6-Phenyl-2-pyridin-4-ylpyrimidin-4-yl)oxy]methyl}benzoic acid], the pKi was 5.14. Turning to `O=C(O)c1ccc(COc2cc(-c3ccccc3)nc(-c3ccccc3)n2)cc1` [Example 7, 4-{[(2,6-Diphenylpyrimidin-4-yl)oxy]methyl}benzoic acid], the pKi is 5.53.

The experiment is the same for the next values; noted with them: inhibitor at 40 μM; from average velocity (Va); 20 μM DIFMUP, 1 nM enzyme.
Turning to `O=C(O)c1ccc(COc2cc(-c3ccccc3)nc(-c3ccc(Cl)cc3)n2)cc1` [Example 1, 4-({[2-(4-Chlorophenyl)-6-phenylpyrimidin-4-yl]oxy}methyl)benzoic acid], the inhibition (as a rule, the change of the read-out against control, counted positive when it falls) at 40 µM was 100%. The same measure, in the same setting: under `Fc1ccc(COc2nc(-c3ccc(Cl)cc3)nc3c2CCC3)cc1` [Example 2, 2-(4-Chlorophenyl)-4-[(4-fluorobenzyl)oxy]-6,7-dihydro-5H-cyclopenta[d]pyrimidine] stands 10%. On the same count and under the same terms, under `Fc1ccc(COc2cc(-c3ccccc3)nc(-c3ccncc3)n2)cc1` [Example 3, 4-[(4-Fluorobenzyl)oxy]-6-phenyl-2-pyridin-4-ylpyrimidine] stands 11%; under `Fc1ccc(COc2nc(-c3ccccc3)nc3c2CCC3)cc1` [Example 4, 4-[(4-Fluorobenzyl)oxy]-2-phenyl-6,7-dihydro-5H-cyclopenta[d]pyrimidine], 12%; under `Fc1ccc(COc2cc(-c3ccccc3)nc(-c3ccc(Cl)cc3)n2)cc1` [Example 5, 2-(4-Chlorophenyl)-4-[(4-fluorobenzyl)oxy]-6-phenylpyrimidine], 11%. On the same count and under the same terms, under `O=C(O)c1ccc(COc2cc(-c3ccccc3)nc(-c3ccncc3)n2)cc1` [Example 6, 4-{[(6-Phenyl-2-pyridin-4-ylpyrimidin-4-yl)oxy]methyl}benzoic acid] stands 56%. As for `O=C(O)c1ccc(COc2cc(-c3ccccc3)nc(-c3ccccc3)n2)cc1` [Example 7, 4-{[(2,6-Diphenylpyrimidin-4-yl)oxy]methyl}benzoic acid], the inhibition at 40 µM is 99%. Still for that read-out and setting: under `CC(C)c1cc(OCc2ccc(F)cc2)nc(-c2cc(Cl)cc(Cl)c2)n1` [Example 8, 2-(3,5-Dichlorophenyl)-4-[(4-fluorobenzyl)oxy]-6-isopropylpyrimidine] stands 48%. Same read-out and setting: under `Fc1ccc(COc2nc(-c3cc(Cl)cc(Cl)c3)nc3c2CN(Cc2ccccc2)CC3)cc1` [Example 9, 6-Benzyl-2-(3,5-dichlorophenyl)-4-[(4-fluorobenzyl)oxy]-5,6,7,8-tetrahydropyrido[4,3-d]pyrimidine] stands 55%; under `CC(C)c1cc(OCc2ccc(F)cc2)nc(-c2cccc([N+](=O)[O-])c2)n1` [Example 10, 4-[(4-Fluorobenzyl)oxy]-6-isopropyl-2-(3-nitrophenyl)pyrimidine], 56%. Still for that read-out and setting: the value for `CC(C)c1cc(OCc2ccc(C#N)cc2)nc(-c2cc(Cl)cc(Cl)c2)n1` [Example 11, 4-({[2-(3,5-Dichlorophenyl)-6-isopropylpyrimidin-4-yl]oxy}methyl)benzonitrile] was 34%; that for `N#Cc1ccc(COc2nc(-c3cc(Cl)cc(Cl)c3)nc3c2CN(Cc2ccccc2)CC3)cc1` [Example 12, 4-({[6-Benzyl-2-(3,5-dichlorophenyl)-5,6,7,8-tetrahydropyrido[4,3-d]pyrimidin-4-yl]oxy}methyl)benzonitrile] was 54%.

In the case of `CC(C)c1cc(OCc2ccc(C#N)cc2)nc(-c2cccc([N+](=O)[O-])c2)n1` [Example 13, 4-({[6-isopropyl-2-(3-nitrophenyl)pyrimidin-4-yl]oxy}methyl)benzonitrile], the inhibition at 40 µM amounted to 55%. Same read-out and setting: under `N#Cc1ccc(COc2nc(-c3cccc([N+](=O)[O-])c3)nc3c2CN(Cc2ccccc2)CC3)cc1` [Example 14, 4-({[6-Benzyl-2-(3-nitrophenyl)-5,6,7,8-tetrahydropyrido[4,3-d]pyrimidin-4-yl]oxy}methyl)benzonitrile] stands 64%. On the same count and under the same terms, under `CC(C)c1cc(OCc2ccc(C(F)(F)F)cc2)nc(-c2cc(Cl)cc(Cl)c2)n1` [Example 15, 2-(3,5-Dichlorophenyl)-4-isopropyl-6-{[4-(trifluoromethyl)benzyl]oxy} pyrimidine] stands 57%; under `FC(F)(F)c1ccc(COc2nc(-c3cc(Cl)cc(Cl)c3)nc3c2CN(Cc2ccccc2)CC3)cc1` [Example 16, 6-Benzyl-2-(3,5-dichlorophenyl)-4-{[4-(trifluoromethyl)benzyl]oxy}-5,6,7,8-tetrahydropyrido[4,3-d]pyrimidine], 52%; under `CC(C)c1cc(OCc2ccc(C(F)(F)F)cc2)nc(-c2cccc([N+](=O)[O-])c2)n1` [Example 17, 4-Isopropyl-2-(3-nitrophenyl)-6-{[4-(trifluoromethyl)benzyl]oxy} pyrimidine], 49%. Regarding `O=[N+]([O-])c1cccc(-c2nc3c(c(OCc4ccc(C(F)(F)F)cc4)n2)CN(Cc2ccccc2)CC3)c1` [Example 18, 6-Benzyl-2-(3-nitrophenyl)-4-{[4-(trifluoromethyl)benzyl]oxy}-5,6,7,8-tetrahydropyrido[4,3-d]pyrimidine], the inhibition at 40 µM worked out at 51%.

Regarding `CC(C)c1cc(OCc2ccc(C(=O)O)cc2)nc(-c2cc(Cl)cc(Cl)c2)n1` [Example 19, 4-({[2-(3,5-Dichlorophenyl)-6-isopropylpyrimidin-4-yl]oxy}methyl)benzoic acid], the inhibition at 40 µM is 101%. For the compound `O=C(O)c1ccc(COc2nc(-c3cc(Cl)cc(Cl)c3)nc3c2CN(Cc2ccccc2)CC3)cc1` [Example 20, 4-({[6-Benzyl-2-(3,5-dichlorophenyl)-5,6,7,8-tetrahydropyrido[4,3-d]pyrimidin-4-yl]oxy}methyl)benzoic acid], the inhibition at 40 µM is 100%. Turning to `CC(C)c1cc(OCc2ccc(C(=O)O)cc2)nc(-c2cccc([N+](=O)[O-])c2)n1` [Example 21, 4-({[6-Isopropyl-2-(3-nitrophenyl)pyrimidin-4-yl]oxy}methyl)benzoic acid], the inhibition at 40 µM was found to be 101%. For the compound `O=C(O)c1ccc(COc2nc(-c3cccc([N+](=O)[O-])c3)nc3c2CN(Cc2ccccc2)CC3)cc1` [Example 22, 4-({[6-Benzyl-2-(3-nitrophenyl)-5,6,7,8-tetrahydropyrido[4,3-d]pyrimidin-4-yl]oxy}methyl)benzoic acid], the inhibition at 40 µM came out at 93%.
